Laboratory results as given in patent publication US20220267350A1, “ADENOSINE RECEPTOR ANTAGONIST” (XIAMEN BIOTIME BIOTECHNOLOGY CO., LTD., priority 2019, published 2022).

Legend:
[1] = target: A2A receptor (Homo sapiens, UniProt P29274); assay: A2A receptor antagonist functional assay (cAMP, NECA at EC80); format: cell-based; settings: A2A cell line (PerkinElmer ES-011-C); 5'-N-ethylcarboxamidoadenosine at EC80; cAMP readout; read-out: A2A Antagonistic function IC50
Protocol: (§1) The A2A cell line was derived from PerkinElmer (Product ID: ES-011-C); the A2B cell line was derived from PerkinElmer (Product ID: ES-013-C). The experimental procedure was referred to ACS Medicinal Chemistry Letters (2011) 2, 213-218; the specific test was completed by Pharmaron Beijing Co., Ltd. with the following steps: 10 nL of compound stock in DMSO (10 mM) followed by 10 μL of A2A or A2B cell suspension (30000 cells/mL) were transferred to assay wells of a 384-well plate at room temperature and incubated for 20 minutes at room temperature. The corresponding amount of 5′-N-ethylcarboxamidoadenosine at EC80 activation concentration was transferred to each test well, and incubated for another 30 minutes at 37° C., 5% CO2, 95% humidity, then Eu-cAMP tracer working solution and Ulight-anti-cAMP working solution were added to the cell culture plate at 5 uL/well in sequence, and the cell plate fluorescence was read with Envision (excitation wavelength: 320 nm, emission wavelength: 665 nm and 615 nm). The corresponding inhibition rate in each well was obtained according to the following formula, and a sigmoidal dose-inhibition rate curve was plotted using a non-linear regression model to calculate the IC50 value.

[2] = target: T1, A2B receptor (Homo sapiens, UniProt P29275); assay: A2B receptor antagonist functional assay (cAMP, NECA at EC80); format: cell-based; settings: A2B cell line (PerkinElmer ES-013-C); 5'-N-ethylcarboxamidoadenosine at EC80; cAMP readout; read-out: A2B Antagonistic function IC50
T1 sequence (P29275 1-332): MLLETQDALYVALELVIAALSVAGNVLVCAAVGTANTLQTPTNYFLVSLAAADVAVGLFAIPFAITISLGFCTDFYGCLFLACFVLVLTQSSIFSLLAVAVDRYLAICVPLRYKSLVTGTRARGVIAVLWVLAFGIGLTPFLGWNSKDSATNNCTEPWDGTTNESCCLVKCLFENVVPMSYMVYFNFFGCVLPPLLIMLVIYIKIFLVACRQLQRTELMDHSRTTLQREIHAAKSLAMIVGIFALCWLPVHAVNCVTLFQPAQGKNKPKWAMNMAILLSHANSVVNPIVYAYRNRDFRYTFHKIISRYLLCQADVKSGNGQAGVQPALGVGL
Protocol: as §1

Sequence of A2A receptor (P29274 whole entry): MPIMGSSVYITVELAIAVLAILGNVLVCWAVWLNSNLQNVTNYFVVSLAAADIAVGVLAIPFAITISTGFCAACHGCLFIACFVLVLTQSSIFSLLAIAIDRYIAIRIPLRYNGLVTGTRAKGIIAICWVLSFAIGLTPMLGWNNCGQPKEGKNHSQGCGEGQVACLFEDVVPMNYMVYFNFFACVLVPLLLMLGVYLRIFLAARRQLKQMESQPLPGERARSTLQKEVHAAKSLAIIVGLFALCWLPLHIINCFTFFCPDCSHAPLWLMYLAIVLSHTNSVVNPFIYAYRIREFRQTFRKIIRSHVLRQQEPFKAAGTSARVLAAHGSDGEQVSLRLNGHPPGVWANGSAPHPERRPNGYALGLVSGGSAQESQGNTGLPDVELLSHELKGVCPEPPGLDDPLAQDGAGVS

Compound	IC50 [1] [nM]	IC50 [2] [nM]
COc1cccc(Cc2noc3c(-c4ccc(C)o4)nc(N)nc23)c1 [Compound 1]	3.8	149
Cc1ccc(-c2nc(N)nc3c(Cc4ccc(F)cc4)noc23)o1 [Compound 2]	7	–
COc1ccc(Cc2noc3c(-c4ccc(C)o4)nc(N)nc23)cc1 [Compound 3]	120	–
COc1ccccc1Cc1noc2c(-c3ccc(C)o3)nc(N)nc12 [Compound 4]	6.9	–
Cc1ccc(-c2nc(N)nc3c(Cc4ccc(Cl)cc4)noc23)o1 [Compound 5]	31.8	–
Cc1ccc(-c2nc(N)nc3c(Cc4cccc(Cl)c4)noc23)o1 [Compound 6]	3.7	–
Cc1ccc(-c2nc(N)nc3c(Cc4cccc(O)c4)noc23)o1 [Compound 7]	11	11
Cc1ccc(-c2nc(N)nc3c(Cc4ccc(O)cc4)noc23)o1 [Compound 8]	80	–
Cc1ccc(-c2nc(N)nc3c(Cc4ccccc4O)noc23)o1 [Compound 9]	10.2	–
